In PMC9172056 (Journal of medicinal chemistry, 2022):
Read-outs that look alike come from different tables or passages of the source.

Assays:
in vitro = settings: cat
[1] = test system: entry of SARS-CoV-2 (pseudotyped lentivirus with S); experiment: organism not typed; type: cell-based; settings: read-out: EC50 inhibition of SARS-CoV-2 entry
SARS-CoV-2 3CL^pro = SARS-CoV-2 3CL^pro (Severe acute respiratory syndrome coronavirus 2, UniProt P0DTD1); experiment: biochemical; type: biochemical
MERS-CoV 3CL^pro = MERS-CoV 3CL^pro (Middle East respiratory syndrome-related coronavirus, UniProt K9N7C7); experiment: biochemical
Chain of MERS-CoV 3CL^pro (K9N7C7 3248-3553 limits assumed): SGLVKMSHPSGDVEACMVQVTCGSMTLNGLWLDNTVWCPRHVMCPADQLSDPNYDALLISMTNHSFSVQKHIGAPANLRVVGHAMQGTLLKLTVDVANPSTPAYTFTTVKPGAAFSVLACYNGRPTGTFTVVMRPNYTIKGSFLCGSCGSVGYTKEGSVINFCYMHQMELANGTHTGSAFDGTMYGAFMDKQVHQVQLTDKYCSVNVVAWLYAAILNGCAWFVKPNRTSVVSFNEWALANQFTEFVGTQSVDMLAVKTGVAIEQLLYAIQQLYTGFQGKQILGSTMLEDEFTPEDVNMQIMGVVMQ

CRFK cells = settings: cat
SARS-CoV-2 replicon [2] = type: cell-based; settings: read-out: EC50 SARS-CoV-2 replicon assay
SARS-CoV-2 replicon [3] = settings: read-out: EC50 SARS-CoV-2 replicon assay, previously reported; cited from earlier work

In the case of `CC(C)C[C@H](NC(=O)OC1CC2(CCN(C(=O)OC(C)(C)C)CC2)C1)C(=O)N[C@H](C=O)C[C@H]1CCNC1=O` [Compound 7b, tert-Butyl 2-((((S)-4-methyl-1-oxo-1-(((S)-1-oxo-3-((R)-2-oxopyrrolidin-3-yl)propan-2-yl)amino)pentan-2-yl)carbamoyl)oxy)-7-azaspiro[3.5]nonane-7-carboxylate], the CC50 (in vitro) is reported as greater than 100000 nM, the EC50 [1] is reported as 2000 to 10000 nM and the “fold lower IC50 than compound 1b” value (SARS-CoV-2 3CL^pro) is reported as greater than 9 fold.
`CC(C)C[C@H](NC(=O)OC1CC2(CCN(C(=O)OC(C)(C)C)CC2)C1)C(=O)N[C@@H](C[C@H]1CCNC1=O)C(O)S(=O)(=O)O` (stereo partly drawn) [Compound 7c, Sodium (2S)-2-((S)-2-((((7-(tert-butoxycarbonyl)-7-azaspiro[3.5]nonan-2-yl)oxy)carbonyl)amino)-4-methylpentanamido)-1-hydroxy-3-((R)-2-oxopyrrolidin-3-yl)propane-1-sulfonate] showed a CC50 (in vitro) greater than 100000 nM, an EC50 [1] of 2000 to 10000 nM and an IC50 (MERS-CoV 3CL^pro) of 950 ± 210 nM. It also gave an IC50 (SARS-CoV-2 3CL^pro) of 290 ± 20 nM.
Molecule `CC(C)C[C@H](NC(=O)OC1CC2(CCN(C(=O)Cc3ccccc3)CC2)C1)C(=O)N[C@@H](C[C@H]1CCNC1=O)C(O)S(=O)(=O)O` (stereo partly drawn) [Compound 9c, Sodium (2S)-1-hydroxy-2-((S)-4-methyl-2-((((7-(2-phenylacetyl)-7-azaspiro[3.5]nonan-2-yl)oxy)carbonyl)amino)pentanamido)-3-((R)-2-oxopyrrolidin-3-yl)propane-1-sulfonate] has a CC50 (in vitro) greater than 100000 nM, an IC50 (MERS-CoV 3CL^pro) of 610 ± 130 nM and an IC50 (SARS-CoV-2 3CL^pro) of 290 ± 60 nM.
`CC(C)C[C@H](NC(=O)OC1CC2(CCN(S(C)(=O)=O)CC2)C1)C(=O)N[C@@H](C[C@H]1CCNC1=O)C(O)S(=O)(=O)O` (stereo partly drawn) [Compound 10c, Sodium (2S)-1-hydroxy-2-((S)-4-methyl-2-((((7-(methylsulfonyl)-7-azaspiro[3.5]nonan-2-yl)oxy)carbonyl)amino)pentanamido)-3-((R)-2-oxopyrrolidin-3-yl)propane-1-sulfonate] gave a CC50 (in vitro) greater than 100000 nM, an IC50 (MERS-CoV 3CL^pro) of 330 ± 40 nM and an IC50 (SARS-CoV-2 3CL^pro) of 240 ± 30 nM.
For `CC(C)C[C@H](NC(=O)OC1CC2(CCN(C#N)CC2)C1)C(=O)N[C@@H](C[C@H]1CCNC1=O)C(O)S(=O)(=O)O` (stereo partly drawn) [Compound 11c, Sodium (2S)-2-((S)-2-((((7-cyano-7-azaspiro[3.5]nonan-2-yl)oxy)carbonyl)amino)-4-methylpentanamido)-1-hydroxy-3-((R)-2-oxopyrrolidin-3-yl)propane-1-sulfonate], the CC50 (in vitro) was greater than 100000 nM, the IC50 (MERS-CoV 3CL^pro) was 630 ± 180 nM and the IC50 (SARS-CoV-2 3CL^pro) was 390 ± 30 nM.
`CC(C)C[C@H](NC(=O)OC1CN(C(=O)OC(C)(C)C)C1)C(=O)N[C@@H](C[C@H]1CCNC1=O)C(O)S(=O)(=O)O` (stereo partly drawn) [Compound 12c, Sodium (2S)-2-((S)-2-((((1-(tert-butoxycarbonyl)azetidin-3-yl)oxy)carbonyl)amino)-4-methylpentanamido)-1-hydroxy-3-((R)-2-oxopyrrolidin-3-yl)propane-1-sulfonate] showed a CC50 (in vitro) greater than 100000 nM, an IC50 (MERS-CoV 3CL^pro) of 2550 ± 920 nM and an IC50 (SARS-CoV-2 3CL^pro) of 3050 ± 350 nM.
`CC(C)C[C@H](NC(=O)OC1(C)CN(C(=O)OC(C)(C)C)C1)C(=O)N[C@@H](C[C@H]1CCNC1=O)C(O)S(=O)(=O)O` (stereo partly drawn) [Compound 13c, Sodium (2S)-2-((S)-2-((((1-(tert-butoxycarbonyl)-3-methylazetidin-3-yl)oxy)carbonyl)amino)-4-methylpentanamido)-1-hydroxy-3-((R)-2-oxopyrrolidin-3-yl)propane-1-sulfonate] showed a CC50 (in vitro) greater than 100000 nM, an IC50 (MERS-CoV 3CL^pro) of 4300 ± 280 nM and an IC50 (SARS-CoV-2 3CL^pro) of 2500 ± 570 nM.
For `CC(C)C[C@H](NC(=O)OCC1CN(C(=O)OC(C)(C)C)C1)C(=O)N[C@H](C=O)C[C@H]1CCNC1=O` [Compound 14b, tert-Butyl 3-(((((S)-4-methyl-1-oxo-1-(((S)-1-oxo-3-((R)-2-oxopyrrolidin-3-yl)propan-2-yl)amino)pentan-2-yl)carbamoyl)oxy)methyl)azetidine-1-carboxylate], the CC50 (in vitro) was greater than 100000 nM, the EC50 [1] was 2000 to 10000 nM and the “fold better IC50 than the 12b/12c pair” value (SARS-CoV-2 3CL^pro) was greater than 6 fold. For the same molecule, the “fold more potent than 17b” value (SARS-CoV-2 3CL^pro) was 12 fold.
`CC(C)C[C@H](NC(=O)OCC1CN(C(=O)OC(C)(C)C)C1)C(=O)N[C@@H](C[C@H]1CCNC1=O)C(O)S(=O)(=O)[O-].[Na+]` (stereo partly drawn) [Compound 14c, Sodium (2S)-2-((S)-2-((((1-(tert-butoxycarbonyl)azetidin-3-yl)methoxy)carbonyl)amino)-4-methylpentanamido)-1-hydroxy-3-((R)-2-oxopyrrolidin-3-yl)propane-1-sulfonate] showed a CC50 (in vitro) greater than 100000 nM, an EC50 [1] of 2000 to 10000 nM and an IC50 (MERS-CoV 3CL^pro) of 440 ± 60 nM. For the same molecule, the IC50 (SARS-CoV-2 3CL^pro) was 500 ± 140 nM and the “fold better IC50 than the 12b/12c pair” value (SARS-CoV-2 3CL^pro) was greater than 6 fold.
`CC(C)C[C@H](NC(=O)OCC1CN(C(=O)Cc2ccccc2)C1)C(=O)N[C@@H](C[C@H]1CCNC1=O)C(O)S(=O)(=O)O` (stereo partly drawn) [Compound 15c, Sodium (2S)-1-hydroxy-2-((S)-4-methyl-2-((((1-(2-phenylacetyl)azetidin-3-yl)methoxy)carbonyl)amino)pentanamido)-3-((R)-2-oxopyrrolidin-3-yl)propane-1-sulfonate] gave a CC50 (in vitro) greater than 100000 nM, an IC50 (MERS-CoV 3CL^pro) of 180 ± 10 nM and an IC50 (SARS-CoV-2 3CL^pro) of 760 ± 80 nM.
For `CC(C)C[C@H](NC(=O)OCC1CN(C(=O)C2CC3CCC2C3)C1)C(=O)N[C@@H](C[C@H]1CCNC1=O)C(O)S(=O)(=O)O` (stereo partly drawn) [Compound 16c, Sodium (2S)-2-((2S)-2-((((1-(bicyclo[2.2.1]heptane-2-carbonyl)azetidin-3-yl)methoxy)carbonyl)amino)-4-methylpentanamido)-1-hydroxy-3-((R)-2-oxopyrrolidin-3-yl)propane-1-sulfonate], the CC50 (in vitro) was greater than 100000 nM, the IC50 (MERS-CoV 3CL^pro) was 170 ± 30 nM and the IC50 (SARS-CoV-2 3CL^pro) was 490 ± 20 nM.
With `CC(C)C[C@H](NC(=O)OCC1CN(S(C)(=O)=O)C1)C(=O)N[C@@H](C[C@H]1CCNC1=O)C(O)S(=O)(=O)O` (stereo partly drawn) [Compound 17c, Sodium (2S)-1-hydroxy-2-((S)-4-methyl-2-((((1-(methylsulfonyl)azetidin-3-yl)methoxy)carbonyl)amino)pentanamido)-3-((R)-2-oxopyrrolidin-3-yl)propane-1-sulfonate] the CC50 (in vitro) was greater than 100000 nM, the IC50 (MERS-CoV 3CL^pro) was 1350 ± 210 nM and the IC50 (SARS-CoV-2 3CL^pro) was 4050 ± 780 nM.
Work on `[2H]C([2H])(OC(=O)N[C@@H](CC(C)C)C(=O)N[C@@H](C[C@H]1CCNC1=O)C(O)S(=O)(=O)[O-])C1CN(C(=O)OC(C)(C)C)C1.[Na+]` (stereo partly drawn) [Compound 18c, Sodium (2S)-2-((S)-2-((((1-(tert-butoxycarbonyl)azetidin-3-yl)methoxy-d2)carbonyl)amino)-4-methylpentanamido)-1-hydroxy-3-((R)-2-oxopyrrolidin-3-yl)propane-1-sulfonate] yielded a CC50 (in vitro) greater than 100000 nM, an IC50 (MERS-CoV 3CL^pro) of 370 ± 60 nM and an IC50 (SARS-CoV-2 3CL^pro) of 340 ± 10 nM.
For GC376, the CC50 (CRFK cells) is listed as greater than 100000 nM, the EC50 (SARS-CoV-2 replicon [2]) is listed as 27 ± 10 nM and the EC50 (SARS-CoV-2 replicon [3]) is listed as 20 nM.
